According to patent US7799739B2, “Biphenylcarboxamides for controlling micro-organisms” (Bayer CropScience AG, priority 2005, dated 2010):

Tests used:
[1] = logP determination by HPLC on reverse-phase column (C 18), EEC Directive 79/831 Annex V.A8; format: physicochemical; details: reverse-phase HPLC column (C 18), pH 2.3, HPLC, 0.1% aqueous phosphoric acid/acetonitrile, 43° C.
Protocol: The logP values given in the Tables and Preparation Examples above are determined in accordance with EEC Directive 79/831 Annex V.A8 by HPLC (High Performance Liquid Chromatography) on a reverse-phase column (C 18). Temperature: 43° C.
The determination is carried out in the acidic range at pH 2.3 using the mobile phases 0.1% aqueous phosphoric acid and acetonitrile; linear gradient from 10% acetonitrile to 90% acetonitrile.
Calibration is carried out using unbranched alkan-2-ones (having 3 to 16 carbon atoms) with known logP values (determination of the logP values by the retention times using linear interpolation between two successive alkanones).

Venturia inaequalis = experiment: Venturia test (apple)/protective; format: in vivo; details: apple plants, protective spray, application rate 100 ppm, evaluation 10 days after inoculation
Protocol: (§1) To produce a suitable preparation of active compound, 1 part by weight of active compound is mixed with the stated amounts of solvents and emulsifier, and the concentrate is diluted with water to the desired concentration.
(§2) To test for protective activity, young plants are sprayed with the active compound preparation at the stated application rate. After the spray coating has dried on, the plants are inoculated with an aqueous conidia suspension of the apple scab pathogen Venturia inaequalis and then remain in an incubation cabin at about 20° C. and 100% relative atmospheric humidity for 1 day. The plants are then placed in a greenhouse at about 21° C. and a relative atmospheric humidity of about 90%.
(§3) Evaluation is carried out 10 days after the inoculation. 0% means an efficacy which corresponds to that of the control, whereas an efficacy of 100% means that no infection is observed.

Botrytis cinerea = experiment: Botrytis test (bean)/protective; format: in vivo; details: bean plants, protective spray, application rate 100 ppm, evaluation 2 days after inoculation
Protocol: as §1
To test for protective activity, young plants are sprayed with the active compound preparation at the stated application rate. After the spray coating has dried on, 2 small pieces of agar colonized by Botrytis cinerea are placed onto each leaf. The inoculated plants are placed in a dark chamber at about 20° C. and 100% relative atmospheric humidity.
The size of the infected areas on the leaves is evaluated 2 days after the inoculation. 0% means an efficacy which corresponds to that of the control, whereas an efficacy of 100% means that no infection is observed.

Uromyces appendiculatus = experiment: Uromyces test (bean)/protective; format: in vivo; details: bean plants, protective spray, application rate 100 ppm, evaluation 10 days after inoculation
Protocol: as §1
as §2, with “spore” for “conidia”, “bean rust” for “apple scab”, “Uromyces appendiculatus” for “Venturia inaequalis”
as §3

Puccinia recondita = experiment: Puccinia test (wheat)/protective; format: in vivo; details: wheat plants, protective spray, application rate 1000 ppm, evaluation 10 days after inoculation
Protocol: To produce a suitable preparation of active compound, 1 part by weight of active compound is mixed with the stated amounts of solvent and emulsifier, and the concentrate is diluted with water to the desired concentration.
To test for protective activity, young plants are sprayed with the active compound preparation at the stated application rate. After the spray coating has dried on, the plants are sprayed with a conidia suspension of Puccinia recondita. The plants remain in an incubation cabin at 20° C. and 100% relative atmospheric humidity for 48 hours.
The plants are then placed in a greenhouse at a temperature of about 20° C. and a relative atmospheric humidity of 80% to promote the development of rust pustules.
as §3

Structure (SMILES): COC(=O)c1ccc(-c2cc(F)ccc2NC(=O)c2cn(C)nc2C(F)(F)F)cc1F [No. 1, methyl 3,5′-difluoro-2′-({[1-methyl-3-(trifluoromethyl)-1H-pyrazol-4-yl]carbonyl}amino)biphenyl-4-carboxylate]
- chromatographic logP ([1]; compounds of formula (I)): 2.64

Structure (SMILES): COC(=O)c1ccc(-c2cc(F)ccc2N)cc1F [No. 9 (III), methyl 2′-amino-3,5′-difluorobiphenyl-4-carboxylate]
- chromatographic logP ([1]; starting materials of formula (III)): 2.73

Structure (SMILES): COC(=O)c1ccc(-c2cc(F)ccc2NC(=O)c2cn(C)nc2C(F)F)cc1F [drawing 30]
- Efficacy in % (Venturia inaequalis): 71%

Structure (SMILES): COC(=O)c1ccc(-c2cc(F)ccc2NC(=O)c2cn(C)nc2C(F)(F)F)cc1F [drawing 31]
- Efficacy in % (Botrytis cinerea): 78%

Structure (SMILES): COC(=O)c1ccc(-c2cc(F)ccc2NC(=O)c2cn(C)nc2C(F)(F)F)cc1F [drawing 32]
- Efficacy in % (Uromyces appendiculatus): 93%

Structure (SMILES): COC(=O)c1ccc(-c2cc(F)ccc2NC(=O)c2cn(C)nc2C(F)F)cc1F [drawing 33]
- Efficacy in % (Uromyces appendiculatus): 78%

Structure (SMILES): COC(=O)c1ccc(-c2cc(F)ccc2NC(=O)c2cn(C)nc2C(F)(F)F)cc1F [drawing 34]
- Efficacy in % (Puccinia recondita): 100%

Structure (SMILES): COC(=O)c1ccc(-c2cc(F)ccc2NC(=O)c2cn(C)nc2C(F)F)cc1F [drawing 35]
- Efficacy in % (Puccinia recondita): 90%
